Earlier results in patent US20230263806A1, “METHODS OF TREATING PROTEINOPATHIES” (Woolsey Pharmaceuticals, Inc., priority 2020, published 2023).
Counter-ions that a name gives are not always drawn.

Assays:
[1] = tested on: triple transgenic mouse model (APP Swedish, MAPT P301L, and PSEN1 M146V); details: 10 mg/kg/day intraperitoneally (57 mg HED)
[2] = tested on: triple transgenic Mice; details: 10 or 12 months of age; administered in water at 30 mg/kg and 100 mg/kg
[3] = 1-hydroxy (M3) metabolite, in vivo
[4] = molecular target: p38 mitogen-activated protein kinase (Homo sapiens, UniProt Q16539)
p38 mitogen-activated protein kinase, sequence (Q16539 2-360 limits assumed): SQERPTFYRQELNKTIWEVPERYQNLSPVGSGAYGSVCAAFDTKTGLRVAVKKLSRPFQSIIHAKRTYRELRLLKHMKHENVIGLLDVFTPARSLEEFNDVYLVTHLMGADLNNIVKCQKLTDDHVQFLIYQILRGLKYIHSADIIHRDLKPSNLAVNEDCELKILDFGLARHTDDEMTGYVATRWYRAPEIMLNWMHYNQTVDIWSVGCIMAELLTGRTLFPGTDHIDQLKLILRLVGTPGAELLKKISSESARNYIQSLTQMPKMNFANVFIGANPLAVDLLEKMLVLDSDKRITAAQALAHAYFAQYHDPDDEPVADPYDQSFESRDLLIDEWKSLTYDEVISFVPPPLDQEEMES

O=S(=O)(c1cccc2cnccc12)N1CCCNCC1 [fasudil, Hexahydro-1-(5-isoquinolinesulfonyl)-1H-1,4-diazepine Monohydrochloride Hemihydrate]
amyloid plaques in vivo [1]: reduce 1 amyloid plaques | spatial memory [2]: did not observe improvements in spatial memory

O=S(=O)(c1cccc2c(O)nccc12)N1CCCNCC1 [M3]
half-life [3]: about 8 hours

O=c1ncn2nc(Sc3ccc(F)cc3F)ccc2c1-c1c(Cl)cccc1Cl [Neflamapimod]
primary endpoint of improving episodic memory ([4]; Phase 2): failed | tau in the cerebrospinal fluid ([4]; Phase 2): reducing tau | Aβ deposition ([4]; humans): no effect
